Measurements from US8242101B2, “Leukemia treatment method and composition” (University of South Florida, priority 2003, dated 2012).
“Also recorded” adds a separate entry of the source.

Tests used:
MV4-11 (MV) cells = assay: Cell cycle status and apoptosis of MV4-11 cells; type: cell-based, human
[1] = system: p-FLT-3, p-AKT and p-ERK1/2; assay: Western analyses of FLT-3, AKT, ERK1/2 and their phospho forms in MV cells; type: cell-based, human
[2] = system: FLT-3 and p-FLT-3 on MV cells; assay: Flow cytometry (FCM) assay of surface FLT-3 and p-FLT-3 on MV cells; type: cell-based, human; settings: for surface expression of p-FLT-3: FCM
Description: (§1) Simultaneous measurement of surface FLT-3 kinase and Phospho (P Y591) FLT-3 kinase in Acute Leukemic cells using a flow cytometric assay.
(§2) Leukemic cells are harvested by spinning at 1000 rpm at 4 deg for 5 minutes. The cells are washed twice with cold PBS (1×). Equal numbers of cells are utilized for FLT-3 and p-FLT-3 analyses.
(§3) In the assay to detect surface FLT-3 expression, shown in FIG. 8, the cells 10 are incubated on ice for thirty minutes 20 in PBS (1×) 30 containing 3% FBS (blocking buffer) 40. Subsequently, the cells are washed twice with cold PBS (1×). Cells are then incubated with either 0.2 Tg of anti-FLT-3 antibody 50 (sc-19635, Santa Cruz Biotechnology, Calif.) or concentration-matched isotype, control antibody (IgG1, Caltag, Burlingame, Calif.) 60 diluted in the blocking buffer and kept on ice for one hour 70. Cells are then washed twice in PBS (1×) and incubated in FITC-conjugated secondary antibody (Molecular Probes, Eugene, Oreg.) 80 for additional thirty minutes on ice 90. The cells are then rinsed twice with PBS (1×) and resuspended in 400 TL PBS (1×) 100. The fluorescence is measured by FACScan Cytometer (San Jose, Calif.).
To determine the p-FLT-3 expression, leukemia cells are fixed and permeabilized. Referring now to the flowchart in FIG. 9, cells 10 are fixed in 1% formaldehyde 20 at 37 degrees for ten minutes 30, followed by incubation on ice for ten minutes. Cells are then spun down and permeabilized by resuspending them in ice cold 90% methanol 40 for thirty minutes. Following this, cells are washed twice in the blocking buffer (PBS (1×) containing 0.5% BSA) 50 and then incubated in the blocking buffer for an additional ten minutes at room temperature (RT) 60. Next, to the cells, either 0.4 Tg of monoclonal antibody to p-FLT-3 (Cell Signaling, Beverley, Mass.) 70 or isotype control antibody (IgG2b, Caltag, Burlingame, Calif.) 80 is added and cells are then incubated at RT for thirty minutes 90. […] After thirty minutes of incubation 110, cells are washed twice with PBS (1×) and resuspended in 400 TI of PBS (1×) 120 and analyzed by FACScan 130.

histone H3 and H4, p21 = assay: Histone acetylation and p21 levels in AML cells; type: cell-based, human; settings: LAQ824 10 to 100 nM
[3] = system: FLT-3 and p-FLT-3 in RS cells; assay: FLT-3 and p-FLT-3 levels in RS cells by Western and FCM analyses; type: cell-based, human
Description: as §1, §2, §3
To determine the p-FLT-3 expression, leukemia cells are fixed and permeabilized. […] After thirty minutes of incubation 110, cells are washed twice with PBS (1×) and resuspended in 400 TI of PBS (1×) 120 and analyzed by FACScan 130.

Hsp-90 = Hsp-90 acetylation, ATP binding and chaperone activities; type: cell-based; settings: earlier work of the inventors

| SMILES | apoptosis (MV4-11 (MV) cells; MV4-11 cells, single agent, FIG. 2 and FIG. 3) | levels of p-FLT-3, p-AKT and p-ERK1/2 ([1]; LAQ824 20 to 100 nM) | FLT-3, P-AKT and P-ERK levels ([1]; MV4-11 cells, immunoblots, FIG. 3) | surface expression of p-FLT-3 [2] | FLT-3 and p-FLT-3 levels ([2]; Western and FCM analyses) | acetylation of histone H3 and H4 (histone H3 and H4, p21) | p21 levels (histone H3 and H4, p21) | FLT-3 and p-FLT-3 levels [3] | acetylation of Hsp-90, its ATP binding and chaperone activities (Hsp-90) | apoptosis, MV compared with RS cells (MV4-11 (MV) cells; 20 to 200 nM PKC412, dose-dependent) | cell cycle G1 phase accumulation (MV4-11 (MV) cells; exposure to 20 to 200 nM PKC412) | p-FLT-3, p-AKT and p-ERK1/2 levels ([1]; Western analyses, 20 to 200 nM PKC412) |
| --- | --- | --- | --- | --- | --- | --- | --- | --- | --- | --- | --- | --- |
| O=C(/C=C/c1ccc(CN(CCO)CCc2c[nH]c3ccccc23)cc1)NO [LAQ824] | induces apoptosis of MV4-11 cells; also recorded: inducing apoptosis of MV4-11 cells | down regulated the levels of p-FLT-3, p-AKT and p-ERK1/2 | attenuates FLT-3, P-AKT, and P-ERK | attenuates cell surface p-FLY-3 expression | attenuated both FLT-3 and p-FLT-3 levels in a dose-dependent manner | induced the acetylation of histone H3 and H4 | increases p21; also recorded: increased p21 levels | attenuated both FLT-3 and p-FLT-3 levels in a dose-dependent manner | induces acetylation of Hsp-90 and inhibition of its ATP binding and chaperone activities | – | – | – |
| CO[C@@H]1[C@H](N(C)C(=O)c2ccccc2)C[C@H]2O[C@]1(C)n1c3ccccc3c3c4c(c5c6ccccc6n2c5c31)C(=O)NC4 [PKC412] | – | – | – | inhibited the surface expression of p-FLT-3 | – | – | – | – | – | significantly more apoptosis of MV than RS cells | induced cell cycle G1 phase accumulation | marked attenuation of p-FLT-3, p-AKT and p-ERK1/2 |
